These results are taken from PMC7125588 (Tetrahedron, 2011).

For one data set, the system named is influenza A (H3N2). Briefly: microbe, parasite or virus in culture. Format: cell-based. The note with it: H3N2, MDCK, read-out: Anti-influenza EC50 A (H3N2).
Another data set can be described thus: in vitro. The settings on record: dog.
The test system of the next data set is MDCK cell cultures. The note with it: for Cytotoxicity MCC: dog.
A further data set has as its system influenza B virus. Put plainly: microbe, parasite or virus in culture. Format: cell-based. The note with it: MDCK, read-out: Anti-influenza EC50 B.
The next data set deals with influenza A (H1N1). Briefly: microbe, parasite or virus in culture. Format: cell-based. The note with it: H1N1, MDCK, read-out: Anti-influenza EC50 A (H1N1).
In another data set the test system is influenza virus A. Put plainly: Anti-influenza virus A activity as summarised in the text. Format: cell-based. The note with it: conclusions.

By EC50 is commonly meant the concentration at which the effect is half-maximal. Consider `NC(=O)c1ncn([C@@H]2O[C@H](CO)[C@@H](O)[C@H]2O)n1` [Ribavirin], for which the concentration giving a half-maximal response (EC50) is 8.7 ± 3.8 µM in the data set with influenza A (H3N2), 5.6 ± 2.8 µM in the data set on influenza B virus and 9.2 ± 0.8 µM in the data set on influenza A (H1N1). The CC50 in “in vitro” is more than 100 µM. In addition, the “Cytotoxicity MCC” value in the data set on MDCK cell cultures is more than 100 µM.

With `CC(N)C12CC3CC(CC(C3)C1)C2` (stereo not drawn) [Rimantadine], the EC50 with influenza A (H3N2) is more than 500 µM; in the data set on influenza B virus, more than 500 µM; in the data set on influenza A (H1N1), 13.2 ± 0.2 µM. Besides, in “in vitro”, the CC50 is more than 100 µM. For the same compound, the “Cytotoxicity MCC” value in the data set with MDCK cell cultures is more than 100 µM.

For the compound `CCOC(=O)C1=C[C@@H](OC(CC)CC)[C@H](NC(C)=O)[C@@H](N)C1` [Oseltamivir], the EC50 with influenza A (H3N2) worked out at […]; in the data set with influenza B virus it was 26 ± 27.7 µM; in the data set with influenza A (H1N1), […]. In addition, the CC50 in “in vitro” was more than 100 µM. Further, in the data set with MDCK cell cultures, the “Cytotoxicity MCC” value was more than 100 µM.

In the case of `NC12CC3CC(CC(C3)C1)C2` [Amantadine], the EC50 in the data set with influenza A (H3N2) is more than 200 µM; with influenza B virus, more than 200 µM; in the data set on influenza A (H1N1) it was 36.8 ± 2.6 µM. This compound showed a CC50 in “in vitro” of more than 100 µM. For the same compound, the “Cytotoxicity MCC” value in the data set on MDCK cell cultures was more than 100 µM.

As to `Nc1nc(P(=O)(O)O)nc(N)c1Cl` [7a, 4,6-Diamino-5-chloropyrimidin-2-ylphosphonic acid], the EC50 in the data set on influenza A (H3N2) stood at 28 ± 10 µM; with influenza B virus, 72 ± 68 µM; in the data set on influenza A (H1N1), 50 ± 14 µM. The compound also had a CC50 in “in vitro” of more than 100 µM. In addition, the “Toxicity (in words)” value in the data set with MDCK cell cultures (Table 2) is reported as “no toxicity”. The “Cytotoxicity MCC” value with MDCK cell cultures was more than 100 µM. In addition, the “Anti-influenza virus A activity (in words)” value with influenza virus A is on record as “middle micromolar range”.
